In paper PMC6131539, “Behavioral Effects of a Potential Novel TAAR1 Antagonist” (Frontiers in Pharmacology, 2018) one finds stereotypic counts and inhibition data, which are given here for one compound.

One assay has as its system TAAR1-KO mice. As to the kind of experiment: Stereotypic counts, co-injection with amphetamine, TAAR1-KO mice. The assay is classed as in vivo. To be noted: only 15 mg/kg, co-injected with amphetamine 2 mg/kg. The protocol: Experimentally naïve mice, of at least 12 weeks of age, were used for all behavioral experiments. The mice were randomly assigned to treatment or control groups, balanced by sex and weight. Locomotor activity was assessed using the automated locomotor analysis monitors (Omnitech Electronics, Columbus, OH, United States). The apparatus included four open field monitors. Each Open Field monitor consisted of sets of 16 light beams arrayed in the horizontal X and Y axes. The hardware detected beams broken by the animal, which allowed the software to determine the location of the mouse in the cage. Total distance covered by mice was used to characterize locomotor activity of the animals. The monitors were divided into four compartments (20 cm × 20 cm). Animals were tested individually for defined periods with 5-min intervals. The mice were first weighed and then placed into the apparatus, allowing for 30 min habituation. […] The locomotor activity was then measured for additional 1 h. […]
Supplementary file Image_2.TIF: FIGURE S2 In vivo studies with TAAR1-KO mice and compound 22 on stereotypic counts activity. […] The sum of stereotypic counts was assessed over 60 min after the injection of amphetamine and compound 22 in WT (solid bars) or TAAR1-KO mice (spotted bars). […] The sum of stereotypic counts was assessed over 60 min following the injection in WT (solid bars) or TAAR1-KO mice (dotted bars). […]

In a further assay the target is T1, 5-HT1B (Homo sapiens, UniProt P28222).
T1 construct: purchased NIMH Psychoactive Drug Screening Program (PDSP), University of North Carolina-Chapel Hill
T1 sequence (P28222 whole entry): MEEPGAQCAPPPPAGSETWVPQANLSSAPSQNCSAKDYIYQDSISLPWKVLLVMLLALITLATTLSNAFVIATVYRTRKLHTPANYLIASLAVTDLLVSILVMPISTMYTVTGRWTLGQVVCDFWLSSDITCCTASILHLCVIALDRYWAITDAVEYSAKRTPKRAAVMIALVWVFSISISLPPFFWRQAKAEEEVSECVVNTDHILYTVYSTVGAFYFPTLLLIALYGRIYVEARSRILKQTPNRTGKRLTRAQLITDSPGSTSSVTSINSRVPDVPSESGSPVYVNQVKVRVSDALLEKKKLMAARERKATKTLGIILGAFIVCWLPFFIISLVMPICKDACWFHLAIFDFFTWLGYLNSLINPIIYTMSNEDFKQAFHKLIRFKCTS
As to the kind of experiment: PDSP binding, primary screen. The protocol: (§1) This was achieved through the identification of potential pharmacological targets of compound 22 using the Psychoactive Drug Screening Program (PDSP) at University of North Carolina-Chapel-Hill. PDSP provides a platform for screening novel psychoactive compounds on human proteins expressed in the central nervous system in order to identify their biological target(s) ([Besnard et al., 2012]). Binding studies were done on 47 targets at a single dose of compound 22 (10 μM; Supplementary Table S1). This primary screen yielded a total of 5 hits for compound 22 (Table 2). These hits were the serotonin, dopamine, and norepinephrine transporters, as well as the sigma 1 and sigma 2 receptors.
(§2) Supplemental Table 1. Compound 22 binding studies from PDSP: primary screen for compound 22 and subsequent hits (50% cut-off, hits highlighted in red). The primary screen was performed by PDSP as described previously (Besnard et al., 2012).

For the next assay, the target named is T2, 5-HT1D (Homo sapiens, UniProt P28221).
T2 construct: purchased NIMH Psychoactive Drug Screening Program (PDSP), University of North Carolina-Chapel Hill
T2 sequence (P28221 whole entry): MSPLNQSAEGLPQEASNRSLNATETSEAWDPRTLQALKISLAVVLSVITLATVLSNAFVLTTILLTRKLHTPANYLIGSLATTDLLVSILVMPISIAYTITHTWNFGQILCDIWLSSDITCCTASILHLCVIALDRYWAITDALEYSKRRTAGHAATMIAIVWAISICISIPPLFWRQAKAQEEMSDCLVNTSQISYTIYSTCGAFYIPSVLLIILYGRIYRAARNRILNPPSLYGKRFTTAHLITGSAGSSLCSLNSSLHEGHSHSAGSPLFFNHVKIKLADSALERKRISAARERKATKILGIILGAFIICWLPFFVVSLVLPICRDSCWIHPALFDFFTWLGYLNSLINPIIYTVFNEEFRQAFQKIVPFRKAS
Nature of the assay: PDSP binding, primary screen. Here is the method:
as §1, §2

For another assay, the target named is T3, 5-HT1E (Homo sapiens, UniProt P28566).
T3 construct: purchased NIMH Psychoactive Drug Screening Program (PDSP), University of North Carolina-Chapel Hill
T3 sequence (P28566 whole entry): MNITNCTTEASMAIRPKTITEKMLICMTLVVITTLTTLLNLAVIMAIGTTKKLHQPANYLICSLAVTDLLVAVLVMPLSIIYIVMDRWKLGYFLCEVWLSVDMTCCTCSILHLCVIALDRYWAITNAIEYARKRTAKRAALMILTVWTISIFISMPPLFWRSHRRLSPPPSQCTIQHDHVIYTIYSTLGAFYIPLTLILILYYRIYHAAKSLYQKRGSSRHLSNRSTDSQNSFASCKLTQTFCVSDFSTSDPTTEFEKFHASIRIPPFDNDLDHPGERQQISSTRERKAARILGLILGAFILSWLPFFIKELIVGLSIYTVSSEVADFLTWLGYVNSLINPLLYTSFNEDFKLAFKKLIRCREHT
Nature of the assay: PDSP binding, primary screen. Here is the method:
as §1, §2

The target of a further assay is T4, 5-HT2B (Homo sapiens, UniProt P41595).
T4 construct: purchased NIMH Psychoactive Drug Screening Program (PDSP), University of North Carolina-Chapel Hill
T4 sequence (P41595 whole entry): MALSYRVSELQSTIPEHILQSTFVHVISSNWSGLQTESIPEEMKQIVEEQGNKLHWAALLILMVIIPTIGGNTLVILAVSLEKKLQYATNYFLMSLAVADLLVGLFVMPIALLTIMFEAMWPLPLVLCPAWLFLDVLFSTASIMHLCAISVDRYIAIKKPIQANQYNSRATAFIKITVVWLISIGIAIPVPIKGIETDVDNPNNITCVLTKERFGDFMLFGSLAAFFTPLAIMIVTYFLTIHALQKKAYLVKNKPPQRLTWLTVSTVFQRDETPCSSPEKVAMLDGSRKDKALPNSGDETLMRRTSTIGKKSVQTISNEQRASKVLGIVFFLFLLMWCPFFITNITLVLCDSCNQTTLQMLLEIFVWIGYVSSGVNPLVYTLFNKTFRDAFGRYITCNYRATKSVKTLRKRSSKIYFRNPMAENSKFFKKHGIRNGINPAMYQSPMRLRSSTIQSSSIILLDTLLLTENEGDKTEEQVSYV
Nature of the assay: PDSP binding, primary screen. The protocol:
as §1, §2

A further assay concerns the target T5, 5-HT6 (Homo sapiens, UniProt P50406).
T5 construct: purchased NIMH Psychoactive Drug Screening Program (PDSP), University of North Carolina-Chapel Hill
As to the kind of experiment: PDSP binding, primary screen. Here is the method:
as §1, §2

In the next assay the target is T6, 5-ht5a (Homo sapiens, UniProt P47898).
T6 construct: purchased NIMH Psychoactive Drug Screening Program (PDSP), University of North Carolina-Chapel Hill
As to the kind of experiment: PDSP binding, primary screen. The protocol:
as §1, §2

A further assay addresses T7, Alpha1D (Homo sapiens, UniProt P25100).
T7 construct: purchased NIMH Psychoactive Drug Screening Program (PDSP), University of North Carolina-Chapel Hill
Nature of the assay: PDSP binding, primary screen. The protocol: as §1, §2

For a further assay, the target named is T8, Alpha2A (Homo sapiens, UniProt P08913).
T8 construct: purchased NIMH Psychoactive Drug Screening Program (PDSP), University of North Carolina-Chapel Hill
As to the kind of experiment: PDSP binding, primary screen. Here is the method:
as §1, §2

The target of another assay is T9, Alpha2C (Homo sapiens, UniProt P18825).
T9 construct: purchased NIMH Psychoactive Drug Screening Program (PDSP), University of North Carolina-Chapel Hill
T9 sequence (P18825 whole entry): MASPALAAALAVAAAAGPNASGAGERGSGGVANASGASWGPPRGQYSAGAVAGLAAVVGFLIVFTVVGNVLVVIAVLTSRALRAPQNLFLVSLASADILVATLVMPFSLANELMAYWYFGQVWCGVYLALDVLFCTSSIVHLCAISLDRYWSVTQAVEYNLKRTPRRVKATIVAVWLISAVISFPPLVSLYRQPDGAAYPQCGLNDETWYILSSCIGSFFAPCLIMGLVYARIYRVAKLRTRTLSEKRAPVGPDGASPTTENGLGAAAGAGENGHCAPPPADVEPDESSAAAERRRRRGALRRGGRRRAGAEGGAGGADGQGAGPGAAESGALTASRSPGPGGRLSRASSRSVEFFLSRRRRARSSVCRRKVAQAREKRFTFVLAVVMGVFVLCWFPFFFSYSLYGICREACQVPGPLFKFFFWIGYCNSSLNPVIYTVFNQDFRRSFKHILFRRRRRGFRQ
Nature of the assay: PDSP binding, primary screen. The protocol:
as §1, §2

A further assay deals with T10, Beta1 (Homo sapiens, UniProt P08588).
T10 construct: purchased NIMH Psychoactive Drug Screening Program (PDSP), University of North Carolina-Chapel Hill
T10 sequence (P08588 whole entry): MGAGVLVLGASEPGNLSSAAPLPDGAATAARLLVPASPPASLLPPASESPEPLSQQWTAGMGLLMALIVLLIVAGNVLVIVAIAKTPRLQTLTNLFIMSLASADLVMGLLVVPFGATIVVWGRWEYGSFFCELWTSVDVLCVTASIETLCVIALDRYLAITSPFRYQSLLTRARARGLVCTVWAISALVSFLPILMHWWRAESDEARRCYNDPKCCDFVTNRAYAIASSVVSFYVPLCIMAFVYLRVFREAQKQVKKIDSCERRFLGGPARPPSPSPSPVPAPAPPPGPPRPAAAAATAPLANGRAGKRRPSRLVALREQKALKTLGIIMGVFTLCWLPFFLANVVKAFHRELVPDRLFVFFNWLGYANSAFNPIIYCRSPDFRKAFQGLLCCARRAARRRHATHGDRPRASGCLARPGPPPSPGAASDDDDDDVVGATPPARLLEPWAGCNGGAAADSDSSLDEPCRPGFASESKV
As to the kind of experiment: PDSP binding, primary screen. Here is the method: as §1, §2

Another assay deals with T11, Beta3 (Homo sapiens, UniProt P13945).
T11 construct: purchased NIMH Psychoactive Drug Screening Program (PDSP), University of North Carolina-Chapel Hill
T11 sequence (P13945 whole entry): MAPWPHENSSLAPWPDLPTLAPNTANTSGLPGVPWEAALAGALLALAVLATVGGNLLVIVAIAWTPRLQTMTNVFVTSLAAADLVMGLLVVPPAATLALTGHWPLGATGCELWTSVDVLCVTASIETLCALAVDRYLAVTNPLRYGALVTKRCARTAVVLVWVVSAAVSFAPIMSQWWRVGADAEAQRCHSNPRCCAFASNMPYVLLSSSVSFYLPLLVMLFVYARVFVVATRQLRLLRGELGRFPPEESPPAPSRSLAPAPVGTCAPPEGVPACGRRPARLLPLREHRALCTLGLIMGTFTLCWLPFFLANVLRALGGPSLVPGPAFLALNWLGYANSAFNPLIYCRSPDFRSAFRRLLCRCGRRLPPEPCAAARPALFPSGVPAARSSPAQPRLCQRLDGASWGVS
As to the kind of experiment: PDSP binding, primary screen. Here is the method:
as §1, §2

For the next assay, the target named is T12, D3 (Homo sapiens, UniProt P35462).
T12 construct: purchased NIMH Psychoactive Drug Screening Program (PDSP), University of North Carolina-Chapel Hill
As to the kind of experiment: PDSP binding, primary screen. Here is the method: as §1, §2

A further assay addresses T13, DAT (Homo sapiens, UniProt Q01959).
T13 construct: purchased NIMH Psychoactive Drug Screening Program (PDSP), University of North Carolina-Chapel Hill
Nature of the assay: PDSP binding, primary screen. Here is the method: as §1, §2

Another assay addresses T14, DOR (Homo sapiens, UniProt P41143).
T14 construct: purchased NIMH Psychoactive Drug Screening Program (PDSP), University of North Carolina-Chapel Hill
Nature of the assay: PDSP binding, primary screen. The protocol:
as §1, §2

The target of the next assay is T15, H2 (Homo sapiens, UniProt P25021).
T15 construct: purchased NIMH Psychoactive Drug Screening Program (PDSP), University of North Carolina-Chapel Hill
As to the kind of experiment: PDSP binding, primary screen. The protocol:
as §1, §2

In a further assay the target is T16, H4 (Homo sapiens, UniProt Q9H3N8).
T16 construct: purchased NIMH Psychoactive Drug Screening Program (PDSP), University of North Carolina-Chapel Hill
T16 sequence (Q9H3N8 whole entry): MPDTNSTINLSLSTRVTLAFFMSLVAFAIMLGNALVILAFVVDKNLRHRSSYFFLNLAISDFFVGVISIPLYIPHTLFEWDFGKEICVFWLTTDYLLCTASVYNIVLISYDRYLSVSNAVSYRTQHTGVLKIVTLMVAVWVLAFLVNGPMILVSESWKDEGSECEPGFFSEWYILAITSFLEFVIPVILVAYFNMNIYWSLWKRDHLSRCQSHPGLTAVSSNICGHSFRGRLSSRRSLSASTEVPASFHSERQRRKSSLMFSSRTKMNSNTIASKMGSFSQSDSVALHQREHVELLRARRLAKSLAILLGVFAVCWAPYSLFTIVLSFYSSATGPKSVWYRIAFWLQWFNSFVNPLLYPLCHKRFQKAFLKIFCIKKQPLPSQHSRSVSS
As to the kind of experiment: PDSP binding, primary screen. Here is the method:
as §1, §2

Another assay deals with T17, M1 (Homo sapiens, UniProt P11229).
T17 construct: purchased NIMH Psychoactive Drug Screening Program (PDSP), University of North Carolina-Chapel Hill
T17 sequence (P11229 whole entry): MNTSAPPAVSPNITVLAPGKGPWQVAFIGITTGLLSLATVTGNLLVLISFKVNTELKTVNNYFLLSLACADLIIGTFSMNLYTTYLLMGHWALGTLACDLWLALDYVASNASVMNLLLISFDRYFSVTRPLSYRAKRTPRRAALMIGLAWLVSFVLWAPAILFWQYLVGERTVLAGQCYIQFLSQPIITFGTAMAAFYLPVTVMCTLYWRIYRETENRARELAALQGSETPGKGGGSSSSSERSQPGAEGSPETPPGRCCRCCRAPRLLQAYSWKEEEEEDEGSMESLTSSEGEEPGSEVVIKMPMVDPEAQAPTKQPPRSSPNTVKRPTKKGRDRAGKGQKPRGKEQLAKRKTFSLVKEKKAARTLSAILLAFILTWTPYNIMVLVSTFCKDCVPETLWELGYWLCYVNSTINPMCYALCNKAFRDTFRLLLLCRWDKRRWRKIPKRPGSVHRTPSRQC
As to the kind of experiment: PDSP binding, primary screen. Here is the method:
as §1, §2

In another assay the target is T18, M5 (Homo sapiens, UniProt P08912).
T18 construct: purchased NIMH Psychoactive Drug Screening Program (PDSP), University of North Carolina-Chapel Hill
As to the kind of experiment: PDSP binding, primary screen. Here is the method:
as §1, §2

The next assay addresses T19, MOR (Homo sapiens, UniProt P35372).
T19 construct: purchased NIMH Psychoactive Drug Screening Program (PDSP), University of North Carolina-Chapel Hill
Nature of the assay: PDSP binding, primary screen. Here is the method: as §1, §2

In a further assay the target is T20, NET (Homo sapiens, UniProt P23975).
T20 construct: purchased NIMH Psychoactive Drug Screening Program (PDSP), University of North Carolina-Chapel Hill
As to the kind of experiment: PDSP binding, primary screen. The protocol:
as §1, §2

T19 sequence (P35372 whole entry): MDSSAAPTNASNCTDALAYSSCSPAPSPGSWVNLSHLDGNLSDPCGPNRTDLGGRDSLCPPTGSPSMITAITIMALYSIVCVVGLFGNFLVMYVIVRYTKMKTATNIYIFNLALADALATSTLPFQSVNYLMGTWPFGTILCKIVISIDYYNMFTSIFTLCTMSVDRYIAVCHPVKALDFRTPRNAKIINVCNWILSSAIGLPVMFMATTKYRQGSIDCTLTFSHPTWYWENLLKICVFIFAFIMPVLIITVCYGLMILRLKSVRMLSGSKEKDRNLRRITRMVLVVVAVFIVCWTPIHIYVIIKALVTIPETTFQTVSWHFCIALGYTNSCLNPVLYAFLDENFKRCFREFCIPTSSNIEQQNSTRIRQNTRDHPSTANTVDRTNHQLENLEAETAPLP
T5 sequence (P50406 whole entry): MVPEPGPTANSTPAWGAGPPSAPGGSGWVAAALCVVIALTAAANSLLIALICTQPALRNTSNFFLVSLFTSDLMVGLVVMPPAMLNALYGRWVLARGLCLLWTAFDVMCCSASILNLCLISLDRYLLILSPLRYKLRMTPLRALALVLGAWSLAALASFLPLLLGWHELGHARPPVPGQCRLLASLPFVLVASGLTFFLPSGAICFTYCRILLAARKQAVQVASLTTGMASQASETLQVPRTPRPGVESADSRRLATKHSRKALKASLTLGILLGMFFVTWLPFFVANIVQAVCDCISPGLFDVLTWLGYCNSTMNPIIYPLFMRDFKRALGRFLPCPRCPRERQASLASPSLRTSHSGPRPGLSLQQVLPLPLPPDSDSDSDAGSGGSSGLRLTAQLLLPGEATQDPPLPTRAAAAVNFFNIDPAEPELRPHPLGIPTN

As usually defined, the inhibition is the relative decrease from the control value, in per cent. As to `Clc1ccc(CNCc2ccc(Cn3cncn3)cc2)c(Cl)c1` [compound 22], the stereotypic counts entry in the assay with TAAR1-KO mice was “statistically significant increase in stereotypic counts”. The inhibition at 10 µM on 5-HT1B is -13.5%; at 5-HT1D, 9.7%; at 5-HT1E, -1.7%; at 5-HT2B, 6.7%; on 5-HT6, 4.6%; on 5-ht5a it was 15.3%. Besides, the inhibition at 10 µM at Alpha1D is 11.6%; on Alpha2A, 32.4%; on Alpha2C it was -4.3%; on Beta1, -3.5%; at Beta3 it was -9.1%; on D3, 9.4%. Besides, the inhibition at 10 µM at DAT was 60.5%; on DOR, 6.2%; on H2 it was 45.2%; on H4, -9.8%; on M1, 18.3%; on M5, 1.4%. Besides, the inhibition at 10 µM at MOR is -3.7%; at NET it was 93.4%.
